Measurements reported in patent US20130102554A1, “COMPOSITION FOR TREATMENT OF OBESITY USING WHEAT BRAN EXTRACT OR ACTIVE INGREDIENT ISOLATED THEREFROM” (priority 2009, published 2013).

Experiments:
[1] = system: mouse preadipocyte 3T3-L1; test: Adipocyte differentiation of 3T3-L1 preadipocytes (MDI induction, Oil Red O staining, absorbance at 510 nm); type: cell-based; conditions: FIGS. 3 to 8; for differentiation of preadipocytes into adipocytes: 3T3-L1, MDI-induced, day 8, Oil Red O; for lipid accumulation of adipocytes: 3T3-L1, Oil Red O lipid contents
Method: The mouse preadipocyte 3T3-L1 was cultured at 37° C. in 10% BCS DMEM under a 5% CO2 condition.
3T3-L1 preadipocytes were seeded at a density of 5×10^4 cells/well into 24-well plates. After being grown to 100% confluency, the cells were incubated for an additional two days. Then, the preadipocytes were induced to differentiate into adipcytes in the presence of MDI (0.5 mM 3-isobutyl-1-methylxanthine (IBMX), 1 μM dexamethasone, 1 μg/ml insulin) in 10% FBS DMEM. After incubation for 48 hours in this medium, the cells were cultured for two days in 10% FBS DMEM containing 1 μg/ml insulin. Subsequently, the cells were cultured for four days in 10% FBS DMEM, with replacement of the medium with a fresh one every two days. During adipocyte differentiation, the cells were treated with predetermined concentrations of the samples. On day 8 at which differentiation was completed, observations were made of the differentiation of the cells. In this connection, the adipose differentiation was qualitatively analyzed with Oil Red 0 staining under an optical microscope and quantitatively analyzed by measuring absorbance at 510 nm.

PPARγ [2] = biological target: T1, PPARγ (Homo sapiens, UniProt P37231); test: PPARγ transcriptional activity, PPRE luciferase reporter in HEK 293T cells; type: cell-based; conditions: 24 hours, alone or with 10 μM troglitazone, FIGS. 9 and 10
T1 construct: expressed in transfected cells; host or cells: HEK 293T
T1 sequence (P37231 1-505): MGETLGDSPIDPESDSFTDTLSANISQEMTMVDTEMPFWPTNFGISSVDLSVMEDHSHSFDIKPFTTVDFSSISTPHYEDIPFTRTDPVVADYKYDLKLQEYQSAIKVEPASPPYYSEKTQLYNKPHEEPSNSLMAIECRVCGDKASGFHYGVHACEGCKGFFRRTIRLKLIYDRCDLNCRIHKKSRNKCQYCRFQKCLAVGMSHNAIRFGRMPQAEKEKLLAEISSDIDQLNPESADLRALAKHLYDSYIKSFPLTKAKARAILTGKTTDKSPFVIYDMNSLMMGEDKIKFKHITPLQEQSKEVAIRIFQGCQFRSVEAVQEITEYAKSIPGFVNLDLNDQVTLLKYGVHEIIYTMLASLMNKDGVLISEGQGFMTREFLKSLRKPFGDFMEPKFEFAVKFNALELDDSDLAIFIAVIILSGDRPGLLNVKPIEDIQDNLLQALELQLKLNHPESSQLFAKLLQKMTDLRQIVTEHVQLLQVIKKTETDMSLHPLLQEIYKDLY
Method: HEK 293T cells were co-transfected with a recombinant pGL3-basic luciferase expression vector (Promega) carrying a PPRE (PPARγ response element) gene and a PPARγ gene and a pRL-SV-40 plasmid (Promega) carrying a Renilla luciferase cDNA as a control reporter. One day after transfection, the cells were treated for 24 hours with predetermined concentrations of the samples (Red-dog A, Red-dog B and Compounds 1 & 2) alone or in combination with 10 μM troglitazone, a ligand to PPARγ. The inhibitory activity of the samples against the transcription factor PPARγ was determined by measuring the expression levels of luciferase.

PPARγ [3] = test: Expression of PPARγ at gene level, real-time PCR in differentiated 3T3-L1 cells; type: cell-based, mouse; conditions: 3T3-L1 differentiated 8 days, GAPDH control, FIGS. 11 to 16
Method: (§1) During adipocyte differentiation, expression levels of PPARγ, C/EBRα and ADD1/SREBP1c are increased.
(§2) After being treated with predetermined concentrations of the samples (Red-dog A, Red-dog B and Compounds 1 & 2) in the same manner as in Experimental Example 1-2, the cells were induced to differentiate into adipocytes for 8 days. The expression levels of PPARγ, C/EBRα and ADD1/SREBP1c were analyzed using real-time PCR. The 3T3-L1 cells were washed twice with PBS after differentiation for 8 days and the cell pellets were used for RNA isolation using an RNA prep kit (Qiagen). cDNA was synthesized from 1 μg of the isolated RNA before real-time PCR using SYBR green (Takara) and the primers given in Table 1, below. As a control gene, GAPDH was used. In this regard, the cDNA synthesized from 1 μg of RNA was diluted 1/50 to a volume of 5 μL and mixed with 0.5 μL of each of 10 pmole primer, 10 μL of 2XSYBR green, and […] of distilled water to give a PCR mix with a total volume of 20 μL. Real-time PCR started with denaturation at 95° C. for 30 sec, followed by 40 thermal cycles of denaturation at 95° C. for 5 sec, annealing for 60° C. for 15 sec and extension at 72° C. for 10 sec. The melt curve consisted of 80 melt cycles, starting at 55° C. to 95° C. with increments of 0.5° C. per cycle. Desired fluorescent signals were detected (data analysis was done with Bio-Rad MyiQ program).

C/EBRα [4] = test: Expression of C/EBRα at gene level, real-time PCR in differentiated 3T3-L1 cells; type: cell-based, mouse; conditions: 3T3-L1 differentiated 8 days, GAPDH control, FIGS. 11 to 16
Method: as §1, §2

ADD1/SREBP1c = test: Expression of ADD1/SREBP1c at gene level, real-time PCR in differentiated 3T3-L1 cells; type: cell-based, mouse; conditions: 3T3-L1 differentiated 8 days, GAPDH control, FIGS. 11 to 16
Method: as §1, §2

PPARγ [5] = test: Expression of PPARγ at protein level, SDS-PAGE and immunoblot in 3T3-L1 cells; type: cell-based, mouse; conditions: 3T3-L1, compared with β-actin; FIGS. 17 and 18
Method: (§3) After the 313-L1 cells were treated with the samples (Red-dog A & Red-dog B, Compounds 1 & 2) at regular intervals of two days in the same manner as in the adipocyte differentiation method, they were washed twice with PBS and lyzed in RIPA buffer (50 mM Tris-HCl, pH 8.0, 150 mM sodium chloride, 1% NP-40, 0.5% sodium dexycholate, 0.1% sodium dodecyl sulfate, protease inhibitor). Proteins harvested by centrifugation at 13,000 rpm for 30 min were separated on 8% SDS-PAGE gel and then transferred onto a membrane. The membrane was blocked with TBST containing 5% skim milk and reacted with a primary antibody (PPARγ, C/EBPα) (Santa Cruz) and then with a secondary antibody (Santa Cruz), followed by color development with an ECL reagent (Thermo scientific) to compare the expression level of PPARγ and C/EBPα with that of β-actin.

C/EBRα [6] = test: Expression of C/EBRα at protein level, SDS-PAGE and immunoblot in 3T3-L1 cells; type: cell-based, mouse; conditions: 3T3-L1, compared with β-actin; FIGS. 17 and 18
Method: as §3

resistin = test: Anti-insulin resistance assay: resistin expression at gene level in differentiated 3T3-L1 cells; type: cell-based, mouse; conditions: cells differentiated for 8 days, FIGS. 19 to 24
Method: (§4) To examine whether the samples (Red-dog A & Red-dog B, compounds 1 & 2) are effective as anti-insulin resistance agents, expression levels of resistin, aP2 and Fas in the cells that had been differentiated for 8 days as in Experimental Example 1 were analyzed using the primers of Table 2, below.

aP2 = test: Anti-insulin resistance assay: aP2 expression at gene level in differentiated 3T3-L1 cells; type: cell-based, mouse; conditions: cells differentiated for 8 days, FIGS. 19 to 24
Method: as §4

Fas = test: Anti-insulin resistance assay: Fas expression at gene level in differentiated 3T3-L1 cells; type: cell-based, mouse; conditions: cells differentiated for 8 days, FIGS. 19 to 24
Method: as §4

Structure (SMILES)	differentiation of preadipocytes into adipocytes [1]	lipid accumulation of adipocytes [1]	transcriptional activity of PPARγ (PPARγ [2])	expression of PPARγ at the genetic level (PPARγ [3])	expression of C/EBRα at the genetic level (C/EBRα [4])	expression of ADD1/SREBP1c at the genetic level (ADD1/SREBP1c)	expression of PPARγ at protein level (PPARγ [5])	expression of C/EBRα at protein level (C/EBRα [6])	expression of resistin at the genetic level (resistin)	expression of resistin at the genetic level (resistin; listed as Chemical Formula 1)	expression of aP2 at the genetic level (aP2)	expression of aP2 at the genetic level (aP2; listed as Chemical Formula 1)	expression of Fas at the genetic level (Fas)	expression of Fas at the genetic level (Fas; listed as Chemical Formula 1)	expression of resistin at the genetic level (resistin; listed as Chemical Formula 2)	expression of aP2 at the genetic level (aP2; listed as Chemical Formula 2)	expression of Fas at the genetic level (Fas; listed as Chemical Formula 2)
COc1cc(OC2OC(CO)[C@@H](O)[C@H](O)[C@@H]2O)ccc1O (stereo partly drawn) [Compound 1, methoxy-hydroquinone-4-β-D-glucopyranoside]	inhibited the differentiation of preadipocytes into adipocytes in dose-dependent manners	inhibitory activities	inhibited the transcriptional activity of PPARγ in a dose-dependent manner	inhibit the expression of PPARγ, C/EBRα and ADD1/SREBP1c in dose-dependent manners	inhibit the expression of PPARγ, C/EBRα and ADD1/SREBP1c in dose-dependent manners	inhibit the expression of PPARγ, C/EBRα and ADD1/SREBP1c in dose-dependent manners	inhibited the expression of PPARγ and C/EBRα in dose-dependent manners	inhibited the expression of PPARγ and C/EBRα in dose-dependent manners	inhibit the expression of resistin, aP2 and Fas in dose-dependent manners	significantly suppressed	inhibit the expression of resistin, aP2 and Fas in dose-dependent manners	significantly suppressed	inhibit the expression of resistin, aP2 and Fas in dose-dependent manners	significantly suppressed	–	–	–
CCCCCC(O)C(O)/C=C/C(O)CCCCCCCC(=O)O (stereo not shown) [Compound 2, 9,12,13-trihydroxy-10(E)-octadecenoic acid]	inhibited the differentiation of preadipocytes into adipocytes in dose-dependent manners	inhibitory activities	inhibited the transcriptional activity of PPARγ in a dose-dependent manner	inhibit the expression of PPARγ, C/EBRα and ADD1/SREBP1c in dose-dependent manners	inhibit the expression of PPARγ, C/EBRα and ADD1/SREBP1c in dose-dependent manners	inhibit the expression of PPARγ, C/EBRα and ADD1/SREBP1c in dose-dependent manners	inhibited the expression of PPARγ and C/EBRα in dose-dependent manners	inhibited the expression of PPARγ and C/EBRα in dose-dependent manners	inhibit the expression of resistin, aP2 and Fas in dose-dependent manners	–	inhibit the expression of resistin, aP2 and Fas in dose-dependent manners	–	inhibit the expression of resistin, aP2 and Fas in dose-dependent manners	–	significantly suppressed	significantly suppressed	significantly suppressed
